# Reference: patent publication US9856290B2, “Glycopeptide compositions and uses thereof” (SUSSEX RESEARCH LABORATORIES INC., priority 2013, dated 2018)
# Where a SMILES comes first, the peptide text is derived from it.
# Experiments:
# [1] = test system: fibroblast; conditions: under certain conditions; cited from earlier work
# [2] = test system: Human Dermal Fibroblasts (KMST-6); assay: Cell Viability MTT Assay; format: cell-based; conditions: 5 μM, KMST-6, 48 and 72 hours; toxicity defined as viability less than 50% of control
# Protocol: KMST-6 cells (Japan Health Sciences Foundation, JCRB0433) were seeded at 7,000 cells/ml in complete media. The complete media consists of the following: MEM/EBSS (Hyclone, SH30024.01), 10% Heat-Inactivated FBS (Gibco, 10082-147), 1% L-Glutamine (Hyclone, SH30031.01), 1% Nucleosides (800 mg/L Adenosine, 850 mg/L Guanidine, 730 mg/L Cytidine, 730 mg/L Uridine and 240 mg/L Thymidine), 1% Penicillin/Streptomycin (HyClone, SV30010), 1% Sodium Pyruvate (HyClone, SH30239.01), 1% Non-Essential Amino Acids (Hyclone, SH30238.01) and 0.04% Gentamicin (Gibco, 15710-064). Cells were grown for 2 days prior to treatments. […] The absorbance was measured with a microplate reader (Molecular Devices, SpectraMax M2e) at 570 nm. […]
# To determine effects on cell viability as a measure of toxicity, 5 μM of the 6 exemplary glycopeptides were applied to Human Dermal Fibroblasts (KMST-6) as previously described. […] The absorbance was measured with a microplate reader (Molecular Devices, SpectraMax M2e) at 570 nm. Three or more independent experiments were performed and statistical significance was determined using One-way ANOVA (p<0.05). […]
# [3] = test system: Human Dermal Fibroblasts (KMST-6); assay: Cell morphology (phase contrast images); format: cell-based; conditions: 5 μM
# Protocol: KMST-6 cells (Japan Health Sciences Foundation, JCRB0433) were seeded at 7,000 cells/ml in 12-well tissue culture treated plates (Falcon, 353043) in complete media. The complete media consists of the following: MEM/EBSS (Hyclone, SH30024.01), 10% Heat-Inactivated FBS (Gibco, 10082-147), 1% L-Glutamine (Hyclone, SH30031.01), 1% Nucleosides (800 mg/L Adenosine, 850 mg/L Guanidine, 730 mg/L Cytidine, 730 mg/L Uridine and 240 mg/L Thymidine), 1% Penicillin/Streptomycin (HyClone, SV30010), 1% Sodium Pyruvate (HyClone, SH30239.01), 1% Non-Essential Amino Acids (Hyclone, SH30238.01) and 0.04% Gentamicin (Gibco, 15710-064). Cells were grown for 2 days prior to treatments. The media was aspirated and cells were washed with 1×PBS (Fisher, SH30256.01) and treated with 5 μM glycopeptides (GP001-1, GP002-3, GP002-7, GP003-9, GP004-3 and GP004-4), reference (Pal-KTTKS, CPC Scientific, 822197), and control (DMSO, Fisher, BP231-100) in serum-free media supplemented with 50 μg/mL Sodium Ascorbate (Sigma, A4034) and 80 μg/mL β-Aminopropionate Fumarate (Sigma, A3134). The treated cells were incubated at 37° C. and 5% CO2 for 48 and 72 hours. At each time point, images were taken with an Olympus Opti-Tech Scientific Microscope (Lumenera, Infinity 2 camera at 10× magnification) and changes in cell size and morphology were recorded. […]
# [4] = test system: MatTek's EpiDermFT 3D human in vitro skin model; assay: Histology (hematoxylin & eosin) of 3D human in vitro skin model; format: cell-based; conditions: 5 μM, 72 hours post treatment
# Protocol: MatTek's EpiDermFT™ 3D human in vitro skin model was produced by MatTek Corporation (Ashland, Mass., USA). The 3D skin model is comprised of normal human epidermal keratinocytes (NHEK) and normal human dermal fibroblasts (NHDF) derived from neonatal-foreskin tissue and adult skin, respectively. […] The tissues were grown at air-liquid interface in Costar Snapwell™ single well tissue culture plate inserts with 0.4 μm pore size, 1.2 cm in diameter and 1.0 cm^2 surface area. For tissue maintenance, serum-free EFT-400-ASY media was used containing Dulbecco's Modified Eagle's Medium (DMEM), epidermal growth factor, insulin, hydrocortisone, 5 μg/mL gentamicin, 0.2 μg/ml amphotericin B and phenol red.
# Tissues were rinsed twice with 1% PBS and treated with 5 μM GP003-9, reference (Pal-KTTKS, CPC Scientific, 822197), and control (DMSO, Fisher, BP231-100). At 72 hours post treatment, the tissue was fixed in 10% neutral buffered formalin overnight and transferred to 1% PBS the next day. […]
# MatTek's EpiDermFT™, which is a 3D human in vitro skin model (comprised of normal human epidermal ketatinocytes and normal human dermal fibroblasts), was used to further investigate the effects of an exemplary glycosylated peptide (GP003-9 (SEQ ID NO: 6)) on human skin. […] At 72 hours post treatment, supernatants were isolated and analysed for elastin secretion. […]
# [5] = test system: human lung fibroblasts; conditions: human lung fibroblasts in vitro; cited from earlier work
compound,measurement,setting,value
"CCCCCCCCCCCCCCCC(=O)N[C@@H](CCCCN)C(=O)N[C@H](C(=O)N[C@H](C(=O)N[C@@H](CCCCN)C(=O)N[C@@H](CO)C(=O)O)[C@@H](C)O)[C@@H](C)O [Reference, Pal-KTTKS] (HELM PEPTIDE1{[CCCCCCCCCCCCCCCC(=O)[*:2]].K.T.T.K.S}$$$$V2.0)",fibroblast cell viability,[1],decrease fibroblast cell viability
same,cell viability as a measure of toxicity (MTT assay),[2],significant decrease in cell viability
same,cell confluence compared to control and glycopeptide treated cells,[3]; KMST-6,demonstrated decrease in cell confluence
same,toxicity as observed through phase-contrast morphology,"[3]; KMST-6, 48 and 72 hours",visibly interfered with cell viability
"CCCCCCCCCCCCCCCC(=O)N[C@@H](CCCCN)C(=O)N[C@H](C(=O)N[C@H](C(=O)N[C@@H](CCCCN)C(=O)N[C@@H](CO)C(=O)O)[C@@H](C)O)[C@@H](C)O[C@@H]1O[C@H](COC(C)=O)[C@@H](O[C@H]2O[C@H](COC(C)=O)[C@@H](OC(C)=O)[C@H](OC(C)=O)[C@H]2OC(C)=O)[C@H](OC(C)=O)[C@H]1OC(C)=O [GP003-9, Pal-KT(Ac7-β-Mal)TKS-OH]",effect on the histology of the 3D human skin model,[4],no detrimental effect
Lys-Thr-Thr-Lys-Ser (KTTKS; listed as Homo sapiens) [pentapeptide derived from the carboxyl-terminus of type I procollagen],ECM proteins (synthesis of collagen types I and III and fibronectin),[5],significantly augment the ECM proteins
